Assay [1] relates to brains, heart, liver, muscle, and DRG of the NHPs. Briefly: Maturation of TTM-001 and TTM-002 capsids, NGS enrichment in NHP tissues. The class given is in vivo. The conditions noted are these: relative to AAV9 control. The method in brief:
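Variants carry mutations within and flanking the loop IV peptide insert: positions 450–466 were triplet-randomized, while positions 449–466 received low-frequency point mutations. The combined pool went into two NHPs, and each peptide was scored by NGS enrichment ratio against AAV9.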

Another assay deals with brain. Put plainly: Matured TTM-001 and TTM-002 variants, NGS enrichment in mouse brain. The class given is in vivo, mice. The conditions noted are these: relative to AAV9 control.
Where [2] appears, read: NGS fold-enrichment of RNA, NHP brain.
Setting [3] is: NGS fold-enrichment, DRG of NHPs.
The mark [4] stands for this setting: NGS fold-enrichment, NHP liver DNA.
Setting [5] is: NGS fold-enrichment, NHP liver RNA.
Setting [6] is: NGS fold-enrichment, NHP muscle.
[7] abbreviates: NGS fold-enrichment, RNA, brain of NHPs.
Where [8] appears, read: NGS fold-enrichment, heart of NHPs.
[9] abbreviates: NGS fold-enrichment, liver DNA of NHPs.
Where [10] appears, read: NGS fold-enrichment, liver RNA of NHPs.
Setting [11] is: NGS fold-enrichment, muscle of NHPs.
[12] abbreviates: NGS fold-enrichment, brain of mice.
Where [13] appears, read: NGS fold-enrichment, mouse brain.
[14] abbreviates: NGS fold-enrichment of matured AAV capsid variants, NHP brain, RNA.

Regarding KTINGSGSPHSKALNRQS, the “Fold Enrichment relative to AAV9, Brain (NHP)” value in assay [1] (setting [2]) and in assay [1] (setting [7]) was 96.843 fold each time. Further, the “Fold Enrichment relative to AAV9, DRG (NHP)” value is 0.136 fold in assay [1] (setting [3]) and 0.136 fold in assay [1] (NGS fold-enrichment, NHP DRG). The “Fold Enrichment relative to AAV9, Heart (NHP)” value in assay [1] (NGS fold-enrichment, NHP heart) is 0.532 fold; in assay [1] (setting [8]) it was 0.532 fold. Further, the “Fold Enrichment relative to AAV9, Liver DNA (NHP)” value in assay [1] (setting [4]) and in assay [1] (setting [9]) was 0.178 fold throughout. In addition, the “Fold Enrichment relative to AAV9, Liver RNA (NHP)” value in assay [1] (setting [5]) and in assay [1] (setting [10]) was 0.042 fold in each case. The “Fold Enrichment relative to AAV9, Muscle (NHP)” value in assay [1] (setting [6]) and in assay [1] (setting [11]) was 0.000 fold throughout. In addition, the “Fold Enrichment relative to AAV9, Brain (Mouse)” value with brain (setting [12]) and in the assay with brain (setting [13]) was 55.945 fold throughout.

Take KTINGSGSPHSKAQFPST: the “Fold Enrichment relative to AAV9, Brain (NHP)” value in assay [1] (setting [2]) and in assay [1] (setting [7]) was 75.677 fold each time. For the same sequence, the “Fold Enrichment relative to AAV9, DRG (NHP)” value in assay [1] (setting [3]) is 0.000 fold; in assay [1] (NGS fold-enrichment, NHP DRG), 0.000 fold. For the same sequence, the “Fold Enrichment relative to AAV9, Heart (NHP)” value came to 0.004 fold in assay [1] (NGS fold-enrichment, NHP heart) and 0.004 fold in assay [1] (setting [8]). For the same sequence, the “Fold Enrichment relative to AAV9, Liver DNA (NHP)” value in assay [1] (setting [4]) and in assay [1] (setting [9]) was 0.127 fold in each case. Moreover, the “Fold Enrichment relative to AAV9, Liver RNA (NHP)” value in assay [1] (setting [5]) and in assay [1] (setting [10]) was 0.849 fold throughout. Also, the “Fold Enrichment relative to AAV9, Muscle (NHP)” value in assay [1] (setting [6]) and in assay [1] (setting [11]) was 0.000 fold in each case. In addition, the “Fold Enrichment relative to AAV9, Brain (Mouse)” value with brain (setting [12]) and in the assay on brain (setting [13]) was 119.712 fold throughout.

Regarding KTENMSGSPHSKAQNQQT, the “Fold Enrichment relative to AAV9, Brain (NHP)” value in assay [1] (setting [2]) and in assay [1] (setting [7]) was 89.247 fold throughout. Further, the “Fold Enrichment relative to AAV9, DRG (NHP)” value in assay [1] (setting [3]) came out at 0.000 fold; in assay [1] (NGS fold-enrichment, NHP DRG), 0.000 fold. In addition, the “Fold Enrichment relative to AAV9, Heart (NHP)” value is reported as 0.000 fold in assay [1] (NGS fold-enrichment, NHP heart) and 0.000 fold in assay [1] (setting [8]). The “Fold Enrichment relative to AAV9, Liver DNA (NHP)” value in assay [1] (setting [4]) and in assay [1] (setting [9]) was 0.260 fold throughout. The “Fold Enrichment relative to AAV9, Liver RNA (NHP)” value in assay [1] (setting [5]) and in assay [1] (setting [10]) was 0.000 fold in each case. The “Fold Enrichment relative to AAV9, Muscle (NHP)” value in assay [1] (setting [6]) and in assay [1] (setting [11]) was 0.000 fold each time. The “Fold Enrichment relative to AAV9, Brain (Mouse)” value in the assay with brain (setting [12]) and in the assay on brain (setting [13]) was 130.568 fold each time.

On to KAINRSGSPHSKAQDQQT, for which the “Fold Enrichment relative to AAV9, Brain (NHP)” value in assay [1] (setting [14]) worked out at 51.262 fold. In assay [1] (NHP DRG), the “Fold Enrichment relative to AAV9, DRG (NHP)” value was 0.000 fold. In assay [1] (NHP heart), the “Fold Enrichment relative to AAV9, Heart (NHP)” value worked out at 0.000 fold. In assay [1] (NHP liver, DNA), the “Fold Enrichment relative to AAV9, Liver DNA (NHP)” value came out at 0.036 fold. The “Fold Enrichment relative to AAV9, Liver RNA (NHP)” value in assay [1] (NHP liver, RNA) was determined as 0.000 fold. Also, in assay [1] (NHP muscle), the “Fold Enrichment relative to AAV9, Muscle (NHP)” value is given as 0.000 fold. In addition, in the assay on brain (mouse brain), the “Fold Enrichment relative to AAV9, Brain (Mouse)” value came out at 54.631 fold.

On to KTINGSGSPHSKAQVPPT, for which, in assay [1] (setting [14]), the “Fold Enrichment relative to AAV9, Brain (NHP)” value is given as 57.316 fold. The “Fold Enrichment relative to AAV9, DRG (NHP)” value in assay [1] (NHP DRG) is 0.000 fold. Further, the “Fold Enrichment relative to AAV9, Heart (NHP)” value in assay [1] (NHP heart) is 0.012 fold. Further, the “Fold Enrichment relative to AAV9, Liver DNA (NHP)” value in assay [1] (NHP liver, DNA) is reported as 0.200 fold. In addition, the “Fold Enrichment relative to AAV9, Liver RNA (NHP)” value in assay [1] (NHP liver, RNA) is on record as 0.257 fold. In assay [1] (NHP muscle), the “Fold Enrichment relative to AAV9, Muscle (NHP)” value is 0.000 fold. Further, the “Fold Enrichment relative to AAV9, Brain (Mouse)” value in the assay on brain (mouse brain) was determined as 90.220 fold.

On to KTIPIDGSPHSKAQNQQT, for which, in assay [1] (setting [3]), the “Fold Enrichment relative to AAV9, DRG (NHP)” value was 0.000 fold. In addition, in assay [1] (setting [7]), the “Fold Enrichment relative to AAV9, Brain (NHP)” value came to 64.421 fold. Further, the “Fold Enrichment relative to AAV9, Heart (NHP)” value in assay [1] (setting [8]) was determined as 0.047 fold. Besides, the “Fold Enrichment relative to AAV9, Liver DNA (NHP)” value in assay [1] (setting [9]) is reported as 0.936 fold. The “Fold Enrichment relative to AAV9, Liver RNA (NHP)” value in assay [1] (setting [10]) came to 0.234 fold. Besides, the “Fold Enrichment relative to AAV9, Muscle (NHP)” value in assay [1] (setting [11]) turned out to be 0.000 fold. For the same sequence, in the assay with brain (setting [12]), the “Fold Enrichment relative to AAV9, Brain (Mouse)” value was found to be 76.826 fold.

As to KTINGSGSPHSKRMEQQT, in assay [1] (setting [14]), the “Fold Enrichment relative to AAV9, Brain (NHP)” value worked out at 50.177 fold. The “Fold Enrichment relative to AAV9, DRG (NHP)” value in assay [1] (NHP DRG) stood at 0.000 fold. The “Fold Enrichment relative to AAV9, Heart (NHP)” value in assay [1] (NHP heart) was 0.000 fold. Further, the “Fold Enrichment relative to AAV9, Liver DNA (NHP)” value in assay [1] (NHP liver, DNA) is reported as 0.208 fold. In assay [1] (NHP liver, RNA), the “Fold Enrichment relative to AAV9, Liver RNA (NHP)” value turned out to be 1.327 fold. Besides, the “Fold Enrichment relative to AAV9, Muscle (NHP)” value in assay [1] (NHP muscle) came to 0.000 fold. For the same sequence, in the assay on brain (mouse brain), the “Fold Enrichment relative to AAV9, Brain (Mouse)” value was determined as 81.769 fold.

For KTINGSGSPHSKALHQHT, the “Fold Enrichment relative to AAV9, Brain (NHP)” value in assay [1] (setting [2]) and in assay [1] (setting [7]) was 77.502 fold throughout. Besides, the “Fold Enrichment relative to AAV9, DRG (NHP)” value in assay [1] (setting [3]) stood at 0.000 fold; in assay [1] (NGS fold-enrichment, NHP DRG), 0.000 fold. In addition, the “Fold Enrichment relative to AAV9, Heart (NHP)” value in assay [1] (NGS fold-enrichment, NHP heart) was found to be 0.052 fold; in assay [1] (setting [8]), 0.052 fold. The “Fold Enrichment relative to AAV9, Liver DNA (NHP)” value in assay [1] (setting [4]) and in assay [1] (setting [9]) was 0.188 fold throughout. Also, the “Fold Enrichment relative to AAV9, Liver RNA (NHP)” value in assay [1] (setting [5]) and in assay [1] (setting [10]) was 0.000 fold each time. Further, the “Fold Enrichment relative to AAV9, Muscle (NHP)” value in assay [1] (setting [6]) and in assay [1] (setting [11]) was 0.041 fold throughout. Besides, the “Fold Enrichment relative to AAV9, Brain (Mouse)” value in the assay with brain (setting [12]) and in the assay with brain (setting [13]) was 68.196 fold each time.

For the sequence KEVQGSGSPHSKAQNQQT, the “Fold Enrichment relative to AAV9, Brain (NHP)” value in assay [1] (setting [14]) was 58.125 fold. Further, in assay [1] (NHP DRG), the “Fold Enrichment relative to AAV9, DRG (NHP)” value was found to be 0.000 fold. The “Fold Enrichment relative to AAV9, Heart (NHP)” value in assay [1] (NHP heart) amounted to 0.000 fold. In addition, the “Fold Enrichment relative to AAV9, Liver DNA (NHP)” value in assay [1] (NHP liver, DNA) is given as 0.000 fold. The “Fold Enrichment relative to AAV9, Liver RNA (NHP)” value in assay [1] (NHP liver, RNA) was determined as 0.657 fold. In addition, the “Fold Enrichment relative to AAV9, Muscle (NHP)” value in assay [1] (NHP muscle) is 0.000 fold. The “Fold Enrichment relative to AAV9, Brain (Mouse)” value with brain (mouse brain) came out at 168.220 fold.

For the sequence KTINGSGSPHSKSQNVQT, the “Fold Enrichment relative to AAV9, DRG (NHP)” value in assay [1] (setting [3]) is 0.000 fold. Moreover, the “Fold Enrichment relative to AAV9, Brain (NHP)” value in assay [1] (setting [7]) was determined as 66.627 fold. For the same sequence, the “Fold Enrichment relative to AAV9, Heart (NHP)” value in assay [1] (setting [8]) worked out at 0.190 fold. Besides, the “Fold Enrichment relative to AAV9, Liver DNA (NHP)” value in assay [1] (setting [9]) was determined as 0.188 fold. Besides, the “Fold Enrichment relative to AAV9, Liver RNA (NHP)” value in assay [1] (setting [10]) stood at 0.202 fold. Also, in assay [1] (setting [11]), the “Fold Enrichment relative to AAV9, Muscle (NHP)” value is 0.000 fold. In addition, the “Fold Enrichment relative to AAV9, Brain (Mouse)” value in the assay on brain (setting [12]) stood at 56.672 fold.

In the case of KTINGSGSPHSKAQSLQI, the “Fold Enrichment relative to AAV9, Brain (NHP)” value in assay [1] (setting [14]) was determined as 53.778 fold. For the same sequence, the “Fold Enrichment relative to AAV9, DRG (NHP)” value in assay [1] (NHP DRG) was 0.000 fold. Further, the “Fold Enrichment relative to AAV9, Heart (NHP)” value in assay [1] (NHP heart) is 0.186 fold. For the same sequence, the “Fold Enrichment relative to AAV9, Liver DNA (NHP)” value in assay [1] (NHP liver, DNA) was found to be 0.047 fold. Moreover, in assay [1] (NHP liver, RNA), the “Fold Enrichment relative to AAV9, Liver RNA (NHP)” value is listed as 0.022 fold. The “Fold Enrichment relative to AAV9, Muscle (NHP)” value in assay [1] (NHP muscle) was 0.000 fold. For the same sequence, in the assay with brain (mouse brain), the “Fold Enrichment relative to AAV9, Brain (Mouse)” value is on record as 51.543 fold.
